Measurements: US9018438B2, “Screening method for anticancer drugs” (Kyoto University, priority 2010, dated 2015)
Counter-ions that a name gives are not always drawn. Like-named read-outs stand apart in the source and are kept apart here.

Legend:
[1] = system: Reck gene promoter; experiment: SEAP assay in YM3 cells (Reck gene promoter-reporter system); format: cell-based, mouse
Protocol: A 4.1-kb upstream region of a mouse Reck gene (Gene ID: 53614, Chromosome 4—NC—000070.5 43884251-43888453) was inserted into a pSEAP2-Basic vector (Clontech) to give a pSEAP-RP4.1 plasmid. […] Biochem Biophys Res Commun 1999; 264: 668-675.). […] TF323-C3 cells can be distributed from one of the inventors Makoto Noda.
YM3 cells were seeded onto 96-well plates at 1×10^4 cells in 100 μl per well and incubation was performed for 5 hours to allow the cells to settle. A compound solution (500 μM, 1 μl) was added to the medium. The employed test compounds were those in the chemical library Prestwick Chemical Library (Prestwick Chemical, Illkirch, France), which is composed of 880 structurally diverse known bioactive compounds, dissolved in nano-pure grade dimethyl sulfoxide (DMSO; Wako). […] A vehicle (DMSO, 1 μl) alone as a negative control and hypothemycin (HPM, 1 mg/ml) as a positive control were added to two wells per plate. Each sample was tested on two different plates (duplicate samples).
After incubation for 48 hours, a portion (10 μl) of the culture supernatant was sampled, incubated at 65° C. (heat treatment) for 30 minutes, and then subjected to the SEAP assay using Great EscAPe™ SEAP Chemiluminescence Detection Kit (Takara Bio). The remaining medium and the cells were subjected to the cell-counting assay using SF reagent. That is, SF reagent (Nacalai) (10 μl per well) was added to the medium, the plates were incubated for 3 hours in a CO2 incubator, and the absorbance at 450 nm (A450) was measured to obtain relative cell numbers. For the SEAP activity data, “SEAP measured value/A450 value” was defined as “SEAP activity per cell”, and the value obtained by dividing “SEAP activity per cell” of each compound by “SEAP activity per cell” of the negative control was defined as “relative SEAP activity”. The mean “relative SEAP activity” of the duplicate samples and the standard error thereof were determined. For the cell number data, the value obtained by dividing the SF measured value of each compound by the SF measured value of the negative control was defined as “relative cell number”, and the mean value of the duplicate samples and the standard error thereof were determined. Samples with a large standard error were tested again. In the experiment, duplicate samples were prepared each in a regular liquid medium and in a liquid medium containing Dox (2 μg/ml), and four mean values (the relative cell number and the relative SEAP activity in the Ras-ON state and the relative cell number and the relative SEAP activity in the Ras-OFF state) were obtained (see FIG. 3).

[2] = system: Reck gene promoter; experiment: as above; format: cell-based, mouse; conditions: determined by dose-response assays (0.0617, 0.185, 0.556, 1.67, 5.00 μM) using YM3 cells
[3] = in the presence of Dox (HRAS12V-off)
[4] = relative SEAP activity at optimal conc., YM3 cells, regular medium (Ras-ON)

Compound	Activity in Dox [1, 3]	Induction (fold) [1, 4] [fold]	other results
CC(=O)O[C@H]1C(=O)[C@@]2(C)[C@H]([C@H](OC(=O)c3ccccc3)[C@]3(O)C[C@H](OC(=O)[C@H](O)[C@@H](NC(=O)c4ccccc4)c4ccccc4)C(C)=C1C3(C)C)[C@]1(OC(C)=O)CO[C@@H]1C[C@@H]2O [Paclitaxel]	± (between 1.9 and 1.5-fold)	3.32	
CCN(CC)C(=S)SSC(=S)N(CC)CC [Disulfiram]	+ (more than 1.9-fold)	18.0	
Trimeprazine tartrate	− (less than 1.5-fold)	2.30	Optimal conc. [2]: 5.00 µM
CCc1nc(N)nc(N)c1-c1ccc(Cl)cc1 [Pyrimethamine]	± (between 1.9 and 1.5-fold)	2.33	
O=C(c1ccc(OCCN2CCCCC2)cc1)c1c(-c2ccc(O)cc2)sc2cc(O)ccc12 [Raloxifene hydrochloride]	− (less than 1.5-fold)	2.17	
COc1cc(/C=C/C(=O)N2CCC=CC2=O)cc(OC)c1OC [Piperlongumine]	− (less than 1.5-fold)	2.06	Optimal conc. [1]: 5.00 µM
Thimerosal			Activity in Dox [1]: + (key: +: more than 1.9-fold; ±: between 1.9 and 1.5-fold; −: less than 1.5-fold); Induction (fold) [1]: 9.33 fold; Optimal conc. [1]: 5.00 µM
CN(C)c1ccc(O)c2c1C[C@H]1C[C@H]3[C@H](N(C)C)C(O)=C(C(N)=O)C(=O)[C@@]3(O)C(O)=C1C2=O [Minocycline hydrochloride]	− (less than 1.5-fold)	2.54	
C[C@@H]1C[C@@H]([C@H](O)CC2CC(=O)NC(=O)C2)C(=O)[C@@H](C)C1 [Cycloheximide]	± (between 1.9 and 1.5-fold)	2.29	
CC1=CC(=O)c2ccccc2C1=O [Menadione]	+ (more than 1.9-fold)	3.21	
C[C@H]1c2cccc(O)c2C(=O)C2=C(O)[C@]3(O)C(=O)C(C(N)=O)=C(O)[C@@H](N(C)C)[C@@H]3[C@@H](O)[C@@H]21 [Doxycycline hydrochloride]	− (less than 1.5-fold)	1.96	
COc1cc(O)c2c(c1)[C@H]1O[C@@H]1C[C@H](O)[C@H](O)C(=O)/C=C\C[C@H](C)OC2=O [HPM, hypothemycin]			SEAP up-regulation in YM3 cells ([1]; 1 μg/ml): up-regulated; up-regulation of SEAP activity ([1]; positive control, typical): about twofold
COc1cccc2c1C(=O)c1c(O)c3c(c(O)c1C2=O)C[C@@](O)(C(C)=O)C[C@@H]3O[C@H]1C[C@H](N)[C@H](O)[C@H](C)O1 [Daunorubicin hydrochloride]	+ (more than 1.9-fold)	6.22	
CN(C)[C@@H]1C(O)=C(C(N)=O)C(=O)[C@@]2(O)C(O)=C3C(=O)c4c(O)ccc(Cl)c4[C@@H](O)[C@H]3C[C@@H]12 [Demeclocycline hydrochloride]	− (less than 1.5-fold)	2.57	
Clc1cc(Cl)c(OCC#CI)cc1Cl [Haloprogin]	+ (more than 1.9-fold)	3.48	
